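Protocol summary: plate cells (96-well), add compound at 5 concentrations, incubate 48 h, interpolate endpoints linearly. The concentration for full growth arrest is given as TGI.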
Key:
Experiment in all cases: NCI tumour cell line growth inhibition, 48 h
[1] = test system: DMS 273 small cell lung
[2] = test system: HOP-18 NSCLC
[3] = test system: LXFL 529 NSCLC
[4] = test system: XF 498 CNS
[5] = test system: P388 leukemia
[6] = test system: P388/ADR leukemia
[7] = test system: SN12K1 renal
[8] = test system: SNB-78 CNS
[9] = test system: RXF-631 renal

| Compound | TGI [1] | TGI [2] | TGI [3] | TGI [4] | TGI [5] | TGI [6] | TGI [7] | TGI [8] | TGI [9] |
| --- | --- | --- | --- | --- | --- | --- | --- | --- | --- |
| CC1CCN(c2cc(-c3cc4ccccc4o3)oc(=O)c2C#N)CC1 | > 100 µM | > 100 µM | > 100 µM | > 100 µM | – | – | – | – | – |
| CC1=NN(C(=O)c2ccc(C)cc2)C(=O)C1N=Nc1ccccc1C(=O)O (configuration not stated) | > 100 µM | > 100 µM | – | > 100 µM | > 51.5 µM | > 100 µM | > 100 µM | > 100 µM | – |
| COc1cccc2c1[C@H]1OC(=O)NC1CCCCC2 (some centres not stated) | > 100 µM | > 100 µM | > 100 µM | – | – | – | – | > 100 µM | – |
| O[C@]12c3ccccc3C1CCCCC2N1CCOCC1 (some centres not stated) | > 100 µM | > 100 µM | > 100 µM | > 100 µM | – | – | – | > 100 µM | – |
| N/C(=N\N=C/c1cc([N+](=O)[O-])cc([N+](=O)[O-])c1O)NO | > 43.3 µM | > 100 µM | – | 98.1 µM | 21.9 µM | > 100 µM | 4.92 µM | > 100 µM | – |
| CCN(CC)C(=S)S | – | > 100 µM | > 100 µM | – | – | – | – | > 100 µM | > 67.4 µM |
| CCN1C(=O)N2C(OC)c3ccccc3C(Br)C2(OC)C1=O (configuration not stated) | > 100 µM | – | > 100 µM | – | – | – | – | – | > 100 µM |
| Nc1ncnc2c1ncn2CCOC(c1ccccc1)P(=O)(O)O (configuration not stated) | > 100 µM | – | > 100 µM | – | – | – | – | > 100 µM | – |

From PubChem BioAssay (NCI)
